Laboratory results: patent US20230035127A1, “CULTURE AND DIFFERENTIATION OF PLURIPOTENT STEM CELLS” (University of Maryland, College Park, priority 2021, published 2023)
Where “and” joins values, the source holds several entries; their conditions need not be identical. Identical values can stand only once. Entries after “also recorded” stand apart in the source; their conditions may differ.

Columns and labels:
Assay type in all cases: cell-based
IMR90-1 human iPSCs = experiment: Flow cytometry of IMR90-1 cardiac spheroids; settings: day 12.5
Method: (§1) For flow cytometry, the eiPSC spheroids were collected on day 0 and the cardiac spheroids were collected on days 1.5, 2.5, 12.5, 15. The spheroids were dissociated to single cells by 0.25% trypsin for 5 min at 37° C. and then fixed with 75% ethanol at 4° C. overnight. The cells were permeabilized with 0.05% Triton X-100 for 3 min and then rinsed with 1×PBS twice. The cell numbers were adjusted to 1×10^6 cells/tube in 700 μL of saline for each marker. These cells were incubated with primary antibodies including OCT-4 (1:500 dilution, Cell Signaling Technologies), NANOG (1:500 dilution, Cell Signaling Technologies), SSEA-4 (1:500 dilution, Cell Signaling Technologies), BRACHYURY (1:500; Santa Cruz Biotechnology), NKX2.5 (1:500; Santa Cruz Biotechnology), cTnT (1:500 dilution, Cell Signaling Technologies), cTnI (1:500 dilution, Cell Signaling Technologies), α-ACTININ (1:500 dilution; Santa Cruz Biotechnology), MUSASHI-1 (1:500; R&D Systems), and TUJ-1 (1:500; R&D Systems) at 4° C. overnight. Subsequently, the samples were rinsed with 1×PBS thrice before incubation with corresponding secondary antibodies: goat anti-mouse IgG FITC and goat anti-rabbit IgG PE, respectively (1:1000; Invitrogen) for 1 h at RT. The samples were then rinsed with 1×PBS thrice before flow cytometry. The negative controls were the cells incubated with respective primary antibodies as aforementioned (no incubation with a secondary antibody).

human eiPSCs [1] = experiment: 2D re-plating of 3D iPSC spheroids on Matrigel (colony morphology, immunostaining); settings: day 0 spheroids cultured 2 days in 2D
Method: To further confirm the aforementioned difference in morphology and protein expression between the 1 and 10 μM RI groups, the 3D iPSC spheroids obtained with 0, 1, and 10 μM RI concentrations collected on day 0 (i.e., after 4-day culture in 3D) were plated on the 2D surface coated with Matrigel in Petri dish (i.e., under conventional 2D culture) and cultured for 2 days to observe the cell morphology.

human eiPSCs [2] = experiment: 3D cardiac differentiation of eiPSC spheroids: percentage of beating cardiac spheroids and outset beating time; settings: for beating efficiency of 3D cardiac differentiation: PSCs
Method: Cardiac differentiation of the 3D eiPSC spheroids was conducted by modulating the canonical Wnt signaling pathway with agonists and antagonists sequentially, which has also been used for differentiation of human PSCs into cardiomyocytes under 2D culture. Two Wnt agonists, CHIR99021 (8 μM) and 6-bromoindirubin-3′-oxime (BIO, 2 μM), were supplemented into the culture medium on day 0, to up-regulate the Wnt signaling and induce iPSC differentiation into mesoderm for 1 day. On day 1, two Wnt antagonists, XAV939 (10 μM) and KY02111 (10 μM), were used to suppress the Wnt signaling for inducing cardiac commitment of the mesoderm cells in the following 6 days to obtain cardiac spheroids. Afterward, the cardiac spheroids were cultured in pure cardiac maintenance medium for maturation until day 13.5. […] In other words, the outset beating time (OBT) of the cardiac spheroids was synchronized to be within ˜24 h for the 1 μM RI group. No significant change in the beating percentage from day 7.5 to day 13.5 was observed. In contrast, in the 10 μM RI group, only ˜8% and ˜44% of cardiac spheroids beat on days 6.5 and 13.5, respectively (FIG. 4A, on day 13.5). […] Therefore, the OBT ranges over at least a week, indicating high heterogeneity of the cardiac spheroids in the 10 μM RI group as the beating is a direct and visible indicator of functional maturity of the cardiac spheroids.
To obtain 3D iPSC spheroids, the iPSC colonies under 2D culture at ˜80% confluence were treated with Versene for 2 min, rinsed with PBS, and further detached from the substrate by gentle pipetting. The detached iPSCs were re-suspended in mTeSR1 with Rock inhibitor (Y27632) at 0, 1, 5, or 10 μM. Afterward, the medium was supplemented with 0.35% (v/v) methylcellulose. The cell suspension (12 ml) containing ˜4×10^6 cells was pushed through a cell strainer with 100 μm mesh size. Later, the suspension of iPSC clumps was transferred into a petri dish (diameter: 10 cm) for culture in a humidified incubator at 37° C. and 5% CO2 for 2 days, during which the 2D iPSC clumps grew into 3D iPSC spheroids. Then, the medium was changed to mTeSR1 (supplemented with 0.35% methylcellulose) with no rock inhibitor, to further culture for 2 days before cardiac differentiation. To determine the number of cells per eiPSC spheroid, roughly equal numbers of the spheroids from either the 1 or 10 μM RI group were pooled together and trypsinized to dissociate the cells. The dissociated cells were then resuspended in 1.4 ml of the aforementioned iPSC maintenance medium and the cell number was counted using a hemocytometer. Three independent runs with 282, 260, and 256 spheroids for the 1 μM RI group and 273, 298, and 286 spheroids for the 10 μM RI group were conducted.
The eiPSC spheroids obtained after 4 days of culture on day 0 were induced into mesoderm by up-regulation of the Wnt signaling pathway using 8 μM CHIR99021 and 2 μM GSK inhibitor 6-bromoindirubin-3′-oxime (BIO) in the mesoderm induction medium for 1 day. The mesoderm induction medium was a mixture of DMEM/F12 and α-MEM (v/v, 1:1), containing 2% Knockout Serum Replacement (KOSR), 1 mM L-glutamine, 1% MEM non-essential amino acids (NEAA), and 0.1 mM β-mercaptoethanol. After 1 day, the spheroids were induced for cardiac commitment by down-regulating the Wnt signaling pathway using 10 μM KY02111 and 10 μM XAV939 in the cardiac maintenance medium for 6 days with the medium being changed every other day. The cardiac maintenance medium was a mixture of RPMI1640 and α-MEM (v/v, 1:1) containing 5% fetal bovine serum (FBS). Starting from day 8, the cardiac maintenance medium without KY02111 and XAV939 was used, and it was changed every other day for cardiac maturation. Images and videos of the resultant cardiac spheroids were taken using the Zeiss LSM 710 microscope before medium change.

human eiPSCs [3] = experiment: Flow cytometry of protein markers in eiPSC spheroids and cardiac spheroids
Method: as §1

C[C@@H](N)[C@H]1CC[C@H](C(=O)Nc2ccncc2)CC1.Cl.Cl (relative stereo) [RI, (+)-(R)-trans-4-(1-aminoethyl)-N-(4-pyridyl) cyclo-hexanecarboxamide dihydrochloride]
cells positive for MUSASHI (IMR90-1 human iPSCs; 1 μM RI): negligible | cells positive for cTnT (IMR90-1 human iPSCs; 1 μM RI): 91% | cells positive for MUSASHI (IMR90-1 human iPSCs; 10 μM RI): ~20% | cells positive for cTnT (IMR90-1 human iPSCs; 10 μM RI): 32% | immunostaining of neural and pluripotency markers in re-plated colonies (human eiPSCs [1]; 1 μM RI): positive expression of OCT-4 and NANOG and were negative for NESTIN and TUJ-1 | morphology of re-plated eiPSC colonies (human eiPSCs [1]; 1 μM RI): typical with tightly packed cells | immunostaining of neural and pluripotency markers in re-plated colonies (human eiPSCs [1]; 10 μM RI): positive staining of neural markers (NESTIN and TUJ-1) and weakened/no staining of pluripotency markers (OCT-4 and NANOG) | morphology of re-plated eiPSC colonies (human eiPSCs [1]; 10 μM RI): more loosely packed | beating efficiency of 3D cardiac differentiation (human eiPSCs [2]; 1 μM RI, in about 7 days): more than 95% | percentage of beating cardiac spheroids (human eiPSCs [2]; 1 μM RI, day 6.5): ~48% | percentage of beating cardiac spheroids (human eiPSCs [2]; 5 μM RI, day 9.5): ~61% | beating efficiency of 3D cardiac differentiation (human eiPSCs [2]; 10 μM RI, in 14 days): less than 50% | outset beating time (OBT) (human eiPSCs [2]; 10 μM RI, day 6-6.5 to day 13.5): more than 7 days | percentage of beating cardiac spheroids (human eiPSCs [2]; 10 μM RI, day 6.5): ~8% | percentage of beating cardiac spheroids (human eiPSCs [2]; 10 μM RI, day 13.5, dihydrochloride): ~44% and 44.3% | expression of pluripotency markers OCT-4, NANOG, SSEA-4 (human eiPSCs [3]; 1 μM RI group versus 10 μM RI group, day 0): significantly higher | expression of neural-specific protein markers MUSASHI-1 and TUJ-1 (human eiPSCs [3]; 1 μM RI, cardiac spheroids day 12.5, dihydrochloride): negligible; also recorded: negative | BRACHYURY-positive cells (human eiPSCs [3]; 1 μM RI, day 1.5, after CHIR99021 and BIO for 1 day): ~100% | NKX2.5 expression (human eiPSCs [3]; 1 μM RI, day 2.5, after XAV939 and KY02111): ~100% | cTnI-positive cells (human eiPSCs [3]; 1 μM RI, day 12.5): 93.9% | cells positive for sarcomere-related proteins including α-ACTININ and cTnI (human eiPSCs [3]; 1 μM RI, day 12.5): more than 90% | α-ACTININ-positive cells (human eiPSCs [3]; 1 μM RI, day 12.5): 95% | expression of ectoderm marker NESTIN (human eiPSCs [3]; 1 μM RI, eiPSC spheroids day 0): negligible | expression of ectoderm marker NESTIN (human eiPSCs [3]; 10 μM RI, eiPSC spheroids after four-day culture (day 0)): 73.1% | percentage of cTnT-positive cells and mean intensity of cTnT fluorescence staining (human eiPSCs [3]; RI from 1 to 5 to 10 μM, cardiac spheroids day 15, dihydrochloride): decreased with the increase of the RI concentration; also recorded: decreases as the RI treatment concentration increases
